For one compound, IC50 results are on record in article PMC5046737, “Target and Non-target Site Mechanisms Developed by Glyphosate-Resistant Hairy beggarticks (Bidens pilosa L.) Populations from Mexico” (Frontiers in Plant Science, 2016).

Molecules are shown by their SMILES.

Experiment [1] concerns T1, EPSPS of the resistant R2 population (EPSPS1 and EPSPS2).
T1 construct: native enzyme in raw leaf extract; isozyme mix unknown
Briefly: EPSPS activity in leaf extract, continuous phosphate release (EnzChek). The class given is biochemical, Bidens pilosa. The following applies: raw leaf extract, mixed isozymes; no EPSPS mutation found in this resistant population; read-out: I50.

Experiment [2] deals with T2, EPSPS of the susceptible (S) population (EPSPS1 and EPSPS2).
T2 construct: native enzyme in raw leaf extract; both isozymes expressed
The experiment is described as above. The following applies: raw leaf extract, mixed isozymes; 10 min at 360 nm; glyphosate 0-10000 μM; text prints 0.95 μM; read-out: I50. The class given is biochemical, Bidens pilosa.
Description: EPSPS activity in leaf extract, continuous phosphate release (EnzChek) on EPSPS of the susceptible (S) population (EPSPS1 and EPSPS2)

Experiment [3] concerns EPSPS of the resistant R1 population (EPSPS1 and EPSPS2, mixed alleles). The following applies: read-out: I50; raw leaf extract, mixed isozymes and alleles (wild type, P106S, T102I/P106S); stated gain. From the text: EPSPS activity in leaf extract, continuous phosphate release (EnzChek) on EPSPS of the resistant R1 population (EPSPS1 and EPSPS2, mixed alleles)

As to `O=C(O)CNCP(=O)(O)O` [glyphosate], the IC50 in experiment [1] was 8.2 ± 1.1 µM; in experiment [2] it was 960 nM; in experiment [3] it was 123 ± 2.1 µM.
